Assay results taken from PMC5458052 (Nature Communications, 2017).

What was measured:
CYP1A2 = CYP1A2 (Homo sapiens, UniProt P05177); experiment: Cytochrome P450 inhibition CYP1A2
[1] = Human PK prediction by allometric scaling; details: allometric scaling from rat parameters
Sigma 1 receptors = target: T1, Sigma 1 receptors (Homo sapiens, UniProt Q99720); experiment: CEREP radioligand binding screen, Sigma 1
T1 construct: CEREP

[2] = In vitro intrinsic clearance, rat liver microsomes (Chem Partners); assay type: in vitro ADME; details: rat (R) liver microsomes
[3] = tested on: major human CYP450s (all isoforms together); experiment: in vitro
[4] = tested on: African variant G6PD deficient human red blood cells (huRBC); details: 7 days post-treatment; E209 up to 50 mg kg^−1 day^−1 for 3 days; PQ 25 mg/kg/day for 3 days
[5] = target: T2, cardiac IKr (hERG) channel (Homo sapiens, UniProt Q12809); experiment: hERG electrophysiology assay (IonWorks HT, CHO cells); assay type: cell-based
T2 construct: expressed in transfected cells; host or cells: CHO cells

CYP2C9 = CYP2C9 (Homo sapiens, UniProt P11712); experiment: Cytochrome P450 inhibition CYP2C9
[6] = tested on: P. falciparum clinical field isolates; experiment: microbe, parasite or virus in culture; assay type: cell-based; details: Plasmodium falciparum, read-out: Median IC50

T2 sequence (Q12809 whole entry): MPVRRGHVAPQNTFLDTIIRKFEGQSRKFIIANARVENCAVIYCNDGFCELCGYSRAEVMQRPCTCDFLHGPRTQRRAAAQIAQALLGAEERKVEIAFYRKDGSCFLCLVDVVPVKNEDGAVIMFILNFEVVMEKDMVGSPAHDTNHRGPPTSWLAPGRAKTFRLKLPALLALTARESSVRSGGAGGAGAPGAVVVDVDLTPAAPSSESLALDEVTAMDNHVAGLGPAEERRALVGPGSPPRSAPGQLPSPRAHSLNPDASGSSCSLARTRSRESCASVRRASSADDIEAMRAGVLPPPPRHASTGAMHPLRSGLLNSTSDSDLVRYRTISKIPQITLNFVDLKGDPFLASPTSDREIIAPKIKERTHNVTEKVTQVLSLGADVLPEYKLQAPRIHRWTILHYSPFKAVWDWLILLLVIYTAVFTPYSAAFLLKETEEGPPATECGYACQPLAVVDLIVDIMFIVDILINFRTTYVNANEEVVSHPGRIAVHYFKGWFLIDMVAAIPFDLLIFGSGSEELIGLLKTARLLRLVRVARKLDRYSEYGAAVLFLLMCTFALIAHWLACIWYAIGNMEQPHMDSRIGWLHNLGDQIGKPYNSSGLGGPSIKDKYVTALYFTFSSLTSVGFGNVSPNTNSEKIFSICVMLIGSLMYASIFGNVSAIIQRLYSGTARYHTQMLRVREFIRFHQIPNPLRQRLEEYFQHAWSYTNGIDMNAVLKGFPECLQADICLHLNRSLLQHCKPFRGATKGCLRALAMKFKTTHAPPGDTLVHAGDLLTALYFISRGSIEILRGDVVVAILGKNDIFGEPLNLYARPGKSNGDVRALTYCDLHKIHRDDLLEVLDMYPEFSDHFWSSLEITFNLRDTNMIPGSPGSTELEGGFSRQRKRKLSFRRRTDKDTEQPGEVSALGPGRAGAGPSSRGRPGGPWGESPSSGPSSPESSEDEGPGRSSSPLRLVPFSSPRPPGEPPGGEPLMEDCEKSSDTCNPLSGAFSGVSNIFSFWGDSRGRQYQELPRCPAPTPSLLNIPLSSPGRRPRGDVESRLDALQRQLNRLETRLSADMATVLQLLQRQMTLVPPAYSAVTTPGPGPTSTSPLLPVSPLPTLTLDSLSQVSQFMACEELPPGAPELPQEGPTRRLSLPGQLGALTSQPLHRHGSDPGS
Sequence of CYP1A2 (P05177 whole entry): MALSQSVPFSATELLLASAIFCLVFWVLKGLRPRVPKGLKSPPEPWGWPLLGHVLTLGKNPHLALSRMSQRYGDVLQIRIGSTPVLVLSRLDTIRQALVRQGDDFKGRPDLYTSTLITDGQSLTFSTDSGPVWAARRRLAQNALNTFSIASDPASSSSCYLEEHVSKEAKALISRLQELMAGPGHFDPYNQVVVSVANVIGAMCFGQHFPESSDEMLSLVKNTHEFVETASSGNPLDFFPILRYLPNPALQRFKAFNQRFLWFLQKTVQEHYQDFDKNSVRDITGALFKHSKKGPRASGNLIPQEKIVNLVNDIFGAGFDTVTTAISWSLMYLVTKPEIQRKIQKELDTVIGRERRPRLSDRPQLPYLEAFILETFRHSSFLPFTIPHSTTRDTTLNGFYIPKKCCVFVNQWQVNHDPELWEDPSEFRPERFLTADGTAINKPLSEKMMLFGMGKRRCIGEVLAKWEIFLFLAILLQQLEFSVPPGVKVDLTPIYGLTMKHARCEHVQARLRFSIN
Sequence of CYP2C9 (P11712 whole entry): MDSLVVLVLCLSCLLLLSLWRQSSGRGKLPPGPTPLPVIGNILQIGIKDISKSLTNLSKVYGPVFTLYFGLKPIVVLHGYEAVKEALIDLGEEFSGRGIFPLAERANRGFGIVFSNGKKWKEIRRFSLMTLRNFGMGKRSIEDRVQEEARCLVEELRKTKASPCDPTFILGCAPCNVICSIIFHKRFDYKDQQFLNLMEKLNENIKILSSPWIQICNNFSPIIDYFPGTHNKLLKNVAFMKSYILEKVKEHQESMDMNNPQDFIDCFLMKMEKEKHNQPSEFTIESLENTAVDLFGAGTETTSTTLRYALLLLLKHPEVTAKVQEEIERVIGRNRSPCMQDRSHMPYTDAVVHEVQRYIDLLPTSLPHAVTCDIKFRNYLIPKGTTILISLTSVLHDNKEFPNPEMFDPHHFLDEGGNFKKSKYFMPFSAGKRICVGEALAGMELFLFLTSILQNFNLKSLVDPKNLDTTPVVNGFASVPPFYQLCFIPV
T1 sequence (Q99720 whole entry): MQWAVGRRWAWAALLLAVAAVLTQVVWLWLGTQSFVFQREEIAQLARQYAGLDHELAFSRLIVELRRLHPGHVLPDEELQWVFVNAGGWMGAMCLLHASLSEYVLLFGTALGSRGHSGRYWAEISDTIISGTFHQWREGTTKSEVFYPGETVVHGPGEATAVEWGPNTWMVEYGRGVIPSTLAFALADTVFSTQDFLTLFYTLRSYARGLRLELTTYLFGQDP

## FC1CCN(CCOc2ccc(C3CCC4(CC3)OOC3(OO4)C4CC5CC(C4)CC3C5)cc2)CC1 (stereo not drawn) [Compound E209]
CYP1A2
  IC50: > 20 µM
[1]
  Absorption rate constant Ka: 0.31 ^† h^−1
  Central clearance, CL: 0.41 l^ h^−1 kg^−1
  Inter-compartmental clearance 1, Q1: 0.45 L/h/kg
  Inter-compartmental clearance 2, Q2: 0.020 L/h/kg
Sigma 1 receptors
  IC50: ~0.2 µM
[2]
  CLint scaled: 4.2 L/h/kg
[3]
  IC50: > 20 µM
[4]
  loss of huRBC: did not show a significant drug-dependent loss of huRBC
[5]
  IC50: > 3.5 µM
CYP2C9
  IC50: > 20 µM
[6]
  IC50: 0.0157 µM
